Test results as given in US20240261310A1, “APPLICATION OF ALGINATE OLIGOSACCHARIDES” (HAITANG (JIANGSU) BIOTECHNOLOGY COMPANY, LTD., priority 2021, published 2024).

Tested on: mice with AKI induced by endotoxin phosphorus lipopolysaccharides (LPS)
Experiment: Mouse acute kidney injury induced by endotoxin phosphorus lipopolysaccharides (LPS)
Type: in vivo
Conditions: for level of serum creatinine: C57/B16 mice, LPS 15 mg/kg i.p., 24 h; for level of serum creatinine / gene expressions of inflammatory factors (IL-1β, IL-18, TNF-α, MCP-1) / mRNA levels of Kim-1 and NGAL in kidney tissues / protein expressions of renal inflammatory factors (TLR4, p-NFκB/NFκB, pro-IL-1β/IL-1β): 0.1 g/kg/day intragastric; for gene expressions of inflammatory factors (IL-1β, IL-18, TNF-α, MCP-1) / mRNA levels of Kim-1 and NGAL in kidney tissues / protein expressions of renal inflammatory factors (TLR4, p-NFκB/NFκB, pro-IL-1β/IL-1β): renal cortex, vs LPS group; for gene expressions of inflammatory factors (IL-1β, IL-18, TNF-α, MCP-1) / mRNA levels of Kim-1 and NGAL in kidney tissues: Qpcr; for protein expressions of renal inflammatory factors (TLR4, p-NFκB/NFκB, pro-IL-1β/IL-1β): western blotting
Excerpt: The kidney injury induced by treatment with endotoxin phosphorus lipopolysaccharides is a classical and standard animal model that simulates the acute kidney injury induced by clinical infection. With the mouse endotoxin phosphorus lipopolysaccharide model, we administered the alginate oligosaccharides with different uniform degrees of polymerization and a mixture thereof, and then compared with a blank group and a non-administrated model group to investigate the therapeutic effects of the individual alginate oligosaccharides with a uniform degree of polymerization.
24 male C57/B16 mice of 22-28 grams were selected. […] LPS was used for modeling to induce the occurrence of sepsis-associated acute kidney injury. During modeling, each model group was intraperitoneally injected with LPS at 15 mg/kg, and the control group was intraperitoneally injected with the same volume of normal saline. Immediately after modeling, the mice were put back into the mouse metabolic cages for observation, in which the weight, food intake, water intake and urine output of the mice were measured. The mice were sacrificed 24 hours later for sampling, and urine was collected. […] Then, the serum creatinine in the mice was determined by using the creatinine assay kit from Nanjing Jiancheng, with the results shown in FIG. 23. During sampling, the kidneys on both sides were isolated, the cortex and inner medulla of each kidney were isolated, and the cortex was stored in trizol. When in use, mRNAs in the cortex were extracted using the trizol method, and the mRNA expressions of AKI biomarkers (KIM-1 and NGAL, with the results shown in FIG. 24) and inflammatory factors (IL-1β, IL-18, TNF-α, and MCP-1, with the results shown in FIG. 25) were detected by the Qpcr method. A tissue lysis buffer was added to homogenize the kidneys by ultrasound, the total protein was then extracted, and the inflammatory factors (p-NFκB/NFκB, pro-IL-1β/IL-1β) in the renal cortex tissues were detected by western blotting. The experimental data were statistically analyzed by one-way ANOVA.
The same experimental method was used as that for the alginate disaccharides. The serum creatinine in the mice was determined by using the creatinine assay kit from Nanjing Jiancheng, with the results shown in FIG. 27. During sampling, the kidneys on both sides were isolated, the cortex and inner medulla of each kidney were isolated, and the cortex was stored in trizol. When in use, mRNAs in the cortex were extracted using the trizol method, and the mRNA expressions of AKI biomarkers (KIM-1 and NGAL, with the results shown in FIG. 28) and inflammatory factors (IL-1β, IL-18, TNF-α, and MCP-1, with the results shown in FIG. 29) were detected by the Qpcr method. A tissue lysis buffer was added to homogenize the kidneys by ultrasound, the total protein was then extracted, and the inflammatory factors (p-NFκB/NFκB, pro-IL-IP/IL-1β) in the renal cortex tissues were detected by western blotting. In addition, the animals were sacrificed after the last blood collection, the kidneys were fixed in 4% formaldehyde solution, and subjected to conventional paraffin embedding, sectioning, and HE staining to observe the general kidney tissue morphology under a light microscope. The experimental data were statistically analyzed by one-way ANOVA.
The same experimental method was used as that for the alginate disaccharides and alginate trisaccharides. […] The serum creatinine in the mice was determined by using the creatinine assay kit from Nanjing Jiancheng, with the results shown in FIG. 32. During sampling, the kidneys on both sides were isolated, the cortex and inner medulla of each kidney were isolated, and the cortex was stored in trizol.

Substance	level of serum creatinine	gene expressions of inflammatory factors (IL-1β, IL-18, TNF-α, MCP-1)	mRNA levels of Kim-1 and NGAL in kidney tissues	protein expressions of renal inflammatory factors (TLR4, p-NFκB/NFκB, pro-IL-1β/IL-1β)	renal histopathological manifestations (HE staining, LPS+AOS3 group)
alginate disaccharide sodium salt [AOS2]	decreased significantly and could basically return to a normal level	significantly reduced the production of inflammatory factors	significantly reduced	significantly reduced the production of the inflammatory factors	–
alginate tetrasaccharide sodium salt [AOS4]	significantly reduced the serum creatinine	significantly reduced	significantly reduced	significantly inhibited the inflammatory responses of the kidneys	–
alginate trisaccharide sodium salt [AOS3]	decreased significantly and could basically return to a normal level	significantly reduced the production of inflammatory factors	significantly reduced	significantly reduced the production of the inflammatory factors	the glomeruli and renal tubules showed mild lesions
